This is an account of results in patent US5591837A, “5-O-desosaminylerythronolide a derivative” (Taisho Pharmaceutical Co., Ltd., priority 1992, dated 1997).

Values after ≈ are worked out from the molar mass of the structure shown. Read-outs that look alike come from different tables or passages of the source.

For one data set, the system named is S. aureus 209P-JC. Briefly: In vitro antibacterial activity (MIC), S. aureus 209P-JC. In kind it is cell-based. The note with it: Staphylococcus aureus, read-out: MIC value (Minimum Inhibitory Concentration). As for the experimental part: (§1) The in vitro antibacterial activity of the compound of the present invention against various experimental microorganism was measured using sensitive disc media (produced by Eiken Chemical Co.) according to the MIC measuring method specified by the Japan Chemotherpeutic Society. Comparative drug 1:3-deoxy-11-{2-[methyl(benzyl)amino]ethyl}amino-3-oxo-5-O-desosaminyl-6-O-methylerythronolide A 11-N,12-O-cyclic carbamate (described in EP patent No. 0487411), Comparative drug 2:3-deoxy-3-oxo-5-O-desosaminyl-6-O-methylerythronolide A 11,12-cyclic carbonate (described in EP patent No. 0487411), Comparative drug 3:6-O-methylerythromycin A and Comparative drug 4:azithromycin were used.

The test system of data set [1] is S. aureus Smith 4. As to the kind of experiment: In vitro antibacterial activity (MIC), S. aureus Smith 4. In kind it is cell-based. The note with it: Staphylococcus aureus. As for the experimental part: as §1
The test system of another data set is E. faecalis CSJ 1212. Briefly: In vitro antibacterial activity (MIC), E. faecalis CSJ 1212. In kind it is cell-based. As to conditions: Enterococcus faecalis. On the procedure: as §1
In another data set the test system is S. aureus B1. As to the kind of experiment: In vitro antibacterial activity (MIC), S. aureus B1. In kind it is cell-based. As to conditions: Staphylococcus aureus. On the procedure: as §1
Another data set deals with H. influenzae ATCC19418. Briefly: In vitro antibacterial activity (MIC), H. influenzae ATCC19418. In kind it is cell-based. The note with it: Haemophilus influenzae, sensitive disc media, read-out: MIC value (Minimum Inhibitory Concentration). As for the experimental part: as §1
Data set [2] deals with S. aureus Smith 4. Briefly: In vivo antibacterial activity: protection effect against infection with S. aureus Smith 4 in mice. Also on record: species or system male ICR mice. The note with it: oral, 1 hour after inoculation, 7 days. On the procedure: The injection protection effect of the compound of the present invention against infectious bacteria (S. aureus Smith 4) was studied using 8 male ICR mice, 4-week-old, for each group and using Comparative drugs 1, 2 and 3 (as described in Experiment 1). Infectious bacteria (S. aureus Smith 4) were incubated for 18 hours, and diluted with a saline solution containing 5% mucin and heart infusion agar, and 0.5 ml of which was inoculated intraperitoneally to mice. An hour after inoculation of bacteria, the drug suspended in 5% gum arabic was administered orally, followed by judgement of life and death during 7 days.

Data set [3] can be described thus: Concentration in mouse serum after oral administration. As to conditions: dose not given; for AUC / Cmax: mouse serum; for concentration at 0.25 h / concentration at 0.5 h / concentration at 1 h / concentration at 2 h / concentration at 4 h / concentration at 6 h: mouse, serum; for concentration at 0.5 h: 0.50 hr. In kind it is in vivo, male ICR mice. On the procedure:
Concentration of the compound of the present invention in mouse serum was determined by using 10 male ICR mice, 4-week-old, for each group and using Comparative drugs 2 and 3 (as described in Experiment 1). The drug suspended in 5% gum arabic was administered orally to mice, the blood was collected with lapse of time, and the serum was separated. Concentration of the drug in the serum was measured by using M. luteus ATCC 9341 as approved bacteria according to the papar-disc method.

Setting [4] is: S. aureus 209P-JC, sensitive disc media.
The mark [5] stands for this setting: SMITH4, S. aureus Smith 4, sensitive disc media, read-out: MIC value (Minimum Inhibitory Concentration).
Setting [6] is: CSJ1212, E. faecalis CSJ 1212, sensitive disc media, read-out: MIC value (Minimum Inhibitory Concentration).
The mark [7] stands for this setting: S. aureus B1, sensitive disc media, read-out: MIC value (Minimum Inhibitory Concentration).
The mark [8] stands for this setting: B1, read-out: MIC value (Minimum Inhibitory Concentration).

For `CC[C@H]1OC(=O)[C@H](C)[C@@H](O[C@H]2C[C@@](C)(OC)[C@@H](O)[C@H](C)O2)[C@H](C)[C@@H](O[C@@H]2O[C@H](C)C[C@H](N(C)C)[C@H]2O)[C@](C)(O)C[C@@H](C)CN(C)[C@H](C)[C@@H](O)[C@]1(C)O` [Comparative drug 4, azithromycin], the MIC in the data set with S. aureus 209P-JC (setting [4]) is 20 µg/mL (≈ 26.7 µM); in the data set on S. aureus Smith 4 [1] (setting [5]), 0.39 µg/mL (≈ 0.521 µM); in the data set on E. faecalis CSJ 1212 (setting [6]), 6.25 µg/mL (≈ 8.34 µM); in the data set on S. aureus B1 (setting [7]), > 100 µg/mL; in the data set with H. influenzae ATCC19418 it was 6.25 µg/mL (≈ 8.34 µM).
As for `CC[C@H]1OC(=O)[C@H](C)C(=O)[C@H](C)[C@@H](O[C@@H]2O[C@H](C)C[C@H](N(C)C)[C@H]2O)[C@](C)(OC)C[C@@H](C)C(=O)[C@H](C)[C@H]2OC(=O)O[C@@]21C` [Comparative drug 2, 3-deoxy-3-oxo-5-O-desosaminyl-6-O-methylerythronolide A 11,12-cyclic carbonate], the MIC in the data set with S. aureus 209P-JC (setting [4]) came to 0.1 µg/mL (≈ 0.163 µM); with S. aureus Smith 4 [1] (setting [5]), 0.1 µg/mL (≈ 0.163 µM); with E. faecalis CSJ 1212 (setting [6]), 0.05 µg/mL (≈ 0.0815 µM); in the data set on S. aureus B1 (setting [7]), 1.56 µg/mL (≈ 2.54 µM); in the data set on H. influenzae ATCC19418 it was 25 µg/mL (≈ 40.7 µM). Moreover, the “Number of Survival (n = 8)” value with S. aureus Smith 4 [2] (0.1 mg/mouse) is 2; with S. aureus Smith 4 [2] (0.4 mg/mouse), 8; in the data set with S. aureus Smith 4 [2] (1.6 mg/mouse) it was 8. Further, the “Concentration in mouse serum” value in data set [3] (6 hr) worked out at 0 ng/mL. In data set [3], this compound displayed an AUC of 1370 ng·h/mL. The compound further returned a Cmax in data set [3] of 410 ng/mL. Moreover, in data set [3], the concentration at 0.25 h is 310 ng/mL. The same compound displayed a concentration at 0.5 h in data set [3] of 410 ng/mL. In addition, in data set [3], the concentration at 1 h amounted to 270 ng/mL. In addition, in data set [3], the concentration at 2 h worked out at 280 ng/mL. The compound also came in with a concentration at 4 h in data set [3] of 260 ng/mL.
For `CC[C@H]1OC(=O)[C@H](C)[C@@H](O[C@H]2C[C@@](C)(OC)[C@@H](O)[C@H](C)O2)[C@H](C)[C@@H](O[C@@H]2O[C@H](C)C[C@H](N(C)C)[C@H]2O)[C@](C)(OC)C[C@@H](C)C(=O)[C@H](C)[C@@H](O)[C@]1(C)O` [Comparative drug 3, 6-O-methylerythromycin A], the MIC in the data set with S. aureus 209P-JC (setting [4]) was 0.1 µg/mL (≈ 0.134 µM); in the data set with S. aureus Smith 4 [1] (setting [5]) it was 0.1 µg/mL (≈ 0.134 µM); in the data set with E. faecalis CSJ 1212 (setting [6]), 3.13 µg/mL (≈ 4.18 µM); in the data set with S. aureus B1 (setting [8]), > 100 µg/mL; in the data set with H. influenzae ATCC19418, 12.5 µg/mL (≈ 16.7 µM). Also, the “Number of Survival (n = 8)” value in the data set with S. aureus Smith 4 [2] (0.1 mg/mouse) amounted to 3; in the data set on S. aureus Smith 4 [2] (0.4 mg/mouse) it was 6; in the data set on S. aureus Smith 4 [2] (1.6 mg/mouse), 8. Also, in data set [3], the exposure (AUC) was 880 ng·h/mL. Besides, the Cmax in data set [3] turned out to be 340 ng/mL. In data set [3], this compound came in with a concentration at 0.25 h of 290 ng/mL. Moreover, the concentration at 0.5 h in data set [3] was 330 ng/mL. In addition, the concentration at 1 h in data set [3] stood at 340 ng/mL. Moreover, the concentration at 2 h in data set [3] was found to be 110 ng/mL. The same compound had a concentration at 4 h in data set [3] of 110 ng/mL. In data set [3] (6 hr), the concentration at 6 h worked out at 40 ng/mL.
In the case of `CC[C@H]1OC(=O)[C@H](C)C(=O)[C@H](C)[C@@H](O[C@@H]2O[C@H](C)C[C@H](N(C)C)[C@H]2O)[C@](C)(OC)C[C@@H](C)C(=O)[C@H](C)[C@H]2NC(=O)O[C@@]21C` [Compound 1, 11-amino-3,11-dideoxy-3-oxo-5-O-desosaminyl-6-O-methylerythronolide A 11-N,12-O-cyclic carbamate], the MIC with S. aureus 209P-JC (209P) stood at 0.05 µg/mL (≈ 0.0816 µM). For the same compound, in the data set on S. aureus Smith 4 [1] (SMITH4, read-out: MIC value (Minimum Inhibitory Concentration)), the MIC amounted to 0.1 µg/mL (≈ 0.163 µM). Also, in the data set on E. faecalis CSJ 1212 (setting [6]), the MIC was 0.05 µg/mL (≈ 0.0816 µM). In the data set with S. aureus B1 (setting [8]), the MIC was 0.2 µg/mL (≈ 0.326 µM). Further, the MIC with H. influenzae ATCC19418 turned out to be 6.25 µg/mL (≈ 10.2 µM). Besides, the “Number of Survival (n = 8)” value in the data set on S. aureus Smith 4 [2] (0.1 mg/mouse) stood at 8. Moreover, the “Number of Survival (n = 8)” value with S. aureus Smith 4 [2] (0.4 mg/mouse) is reported as 8. The “Number of Survival (n = 8)” value with S. aureus Smith 4 [2] (1.6 mg/mouse) was 8. Further, in data set [3], the AUC turned out to be 2900 ng·h/mL, the peak level (Cmax) was 1170 ng/mL, the concentration at 0.25 h turned out to be 230 ng/mL and the concentration at 0.5 h worked out at 1170 ng/mL. In data set [3], the concentration at 1 h came to 770 ng/mL, the concentration at 2 h came out at 600 ng/mL and the concentration at 4 h was found to be 440 ng/mL. The compound also came in with a concentration at 6 h in data set [3] (6 hr) of 50 ng/mL.
As to `CC[C@H]1OC(=O)[C@H](C)C(=O)[C@H](C)[C@@H](O[C@@H]2O[C@H](C)C[C@H](N(C)C)[C@H]2O)[C@](C)(OC)C[C@@H](C)C(=O)[C@H](C)[C@H]2N(CCN(C)Cc3ccccc3)C(=O)O[C@]12C` [Comparative drug 1, 3-deoxy-11-{2-[methyl(benzyl)amino]ethyl}amino-3-oxo-5-O-desosaminyl-6-O-methylerythronolide A 11-N,12-O-cyclic carbamate], the MIC was 0.1 µg/mL (≈ 0.132 µM) with S. aureus 209P-JC (209P); 0.1 µg/mL (≈ 0.132 µM) in the data set with S. aureus Smith 4 [1] (setting [5]); 0.1 µg/mL (≈ 0.132 µM) with E. faecalis CSJ 1212 (CSJ1212, read-out: MIC value (Minimum Inhibitory Concentration)); 0.39 µg/mL (≈ 0.513 µM) in the data set on S. aureus B1 (setting [7]); 6.25 µg/mL (≈ 8.22 µM) with H. influenzae ATCC19418. The “Number of Survival (n = 8)” value is reported as 2 in the data set on S. aureus Smith 4 [2] (0.1 mg/mouse), 2 in the data set on S. aureus Smith 4 [2] (0.4 mg/mouse) and 7 in the data set with S. aureus Smith 4 [2] (1.6 mg/mouse).

By AUC is commonly meant the area under the concentration-time curve, a measure of exposure. A low value points to low exposure. As usually defined, the Cmax is the highest concentration seen after dosing.
